According to paper PMC11641657, “Innovative Approaches to Fucoxanthin Delivery: Characterization and Bioavailability of Solid Lipid Nanoparticles with Eco-Friendly Ingredients and Enteric Coating” (International Journal of Molecular Sciences, 2024):

How the values were obtained:
[1] = Dispersion in ultra-pure water; type: physicochemical; settings: visual
[2] = Morphology by TEM and SEM; type: physicochemical; settings: in aqueous medium
Method: The samples were analyzed by means of a transmission electron microscopy (TEM) (Thermo Scientific Talos F200C) operating at 80 KV. For TEM analysis, the samples were placed on copper grids XP-UC300 (Shanghai X-Pivot Optoelectronic Technology Co., Ltd., Shanghai, China). Scanning Electron Microscopy (SEM) was used to determine the structure of the lyophilized FN–SLN. FN–SLN was dispersed in water and spread on a double-sided conducting adhesive tape, then was pasted on a metallic stub. After drying, it was coated ([…]) with gold in a sputter coating unit for […] using an accelerated voltage of 15 KeV.

[3] = In vivo pharmacokinetics test, oral dosing, FNOH in plasma by LC-MS/MS; settings: after oral 10 mg/kg, parent FN
Method: The qualification and quantification of FN and FNOH in plasma samples was conducted using Nexera LC-40 (Shimadzu UPLC, Kyoto, Japan) coupled with AB 6500+ Q-trap mass spectrometry (ABSCIEX, Framinham, MA, USA), which was equipped with electrospray ionization (ESI). The mobile phase was composed of H2O (A: 0.1% formic acid and acetonitrile (B, 0.1% formic acid; A:B = 10:90, v/v) at a flow rate of 0.35 mL/min, and the injection volume was 5 µL. The analysis utilized a Kinetex EVO C18 column (2.1 mm × 100 mm, 2.6 μm) Phenomenex, Torrance, CA, USA), which was maintained at a temperature of 25 °C. The detection of the compounds (Table 6) was performed in positive ion mode under the following conditions: curtain gas at 35.0 L/h, collision gas medium, ion spray voltage at 5000 V, temperature at 400 °C, and ion source gases 1 and 2 both at 55 L/h. […] The data was acquired using AB Analyst 1.6.1 software (ABSCIEX, USA).
They were provided with standard rat chow and water and libitum throughout the study. The rats were acclimatized to the laboratory environment for 7 days prior to the start of the experiment to minimize stress-induced effects. […]
The plasma drug concentration data were fitted using a non-compartmental model, and pharmacokinetic parameters were calculated via Phoenix WinNonlin 8.1 (Certara Corporation, Princeton, NJ, USA).

[4] = parameters: method as in PMID 11694619; settings: one of the lowest among studied carotenoids; cited from earlier work
[5] = In vitro dissolution test with enteric-coated capsule (SGF then SIF); type: physicochemical
Method: In this study, 7.8 mg of FN–SLNs and FN crystals were encapsulated in separate enteric-coated capsules. The capsules were placed in a glass bottle containing 2 mL of SGF and maintained at 37 °C, stirring at 120 rpm for the first 2 h. During this period, 100 µL samples were collected at predetermined intervals to assess the dissolution profiles of both formulations. Each time a sample was taken, 100 µL of the corresponding fluid was added to maintain the total volume. […] Following this, the SGF was replaced with 2 mL of SIF, and sampling continued at specified intervals. After each sampling, the collected solutions were centrifuged for 2 min (5000 rpm, 4 °C) to separate any undissolved particles. The supernatants were then extracted using methanol, allowing for the quantification of FN using high-performance liquid chromatography (HPLC).

[6] = In vitro release study (dialysis cassette, SGF then SIF); type: physicochemical; settings: 2 h SGF then SIF, 37 °C
Method: A 3 mL dispersion of solid lipid nanoparticles (SLNs) and fucoxanthin (FN) crystal at a concentration of 1 mg/mL/FN was placed in separate dialysis cassettes (Slide-A-Lyzer, Thermo Fisher Scientific, USA) with a molecular weight cutoff (MWCO) of 20 KDa. Each cassette was then immersed in 120 mL of release medium, consisting of 60% ethanol and 40% SGF, and maintained at 37 °C with a stirring speed of 120 rpm for the first 2 h. An appropriate amount of ethanol is necessary to be added to improve the release of FN in a water-based environment. Two hours later, SGF was replaced with SIF. Samples of 10 µL were periodically withdrawn from the internal compartment of the dialysis cassette, using methanol for extraction and dilution to determine the concentration of fucoxanthin. The remaining FN% was calculated with the following equation:(3) Releasing FX%=(1−Mt/M0)×100% where: M0 is the initial amount of FN, and Mt is the amount of FN calculated at a given incubation time.

Question: Which Dispersion in water [1] does the source give for `CC(=O)O[C@H]1CC(C)(C)C(=C=C/C(C)=C/C=C/C(C)=C/C=C/C=C(C)/C=C/C=C(\C)C(=O)C[C@@]23O[C@]2(C)C[C@@H](O)CC3(C)C)[C@](C)(O)C1` [FN, Fucoxanthin] here?
Answer: inadequate

Question: And the “Overall average length of crystals” value [2]?
Answer: exceeding 5 µm

Question: What about the “Concentration of FN in rat plasma” value [3] of the same compound?
Answer: below the lowest limit of quantitation

Question: What about the Bioavailability [4] of the same compound?
Answer: ~ 50 pmol/mg protein

Question: And the “Release rate throughout the 8-h observation period” value [5]?
Answer: consistently low release rate

Question: What about the “Highest release rate in SGF and SIF” value [6] of the same compound?
Answer: 2.88%
